The values that follow come from paper PMC10227015, “From a drug repositioning to a structure-based drug design approach to tackle acute lymphoblastic leukemia” (Nature Communications, 2023).

Where two headings read alike, the source gives them in different places.

The test system of series [1] is CCRF-CEM cell line. As to the kind of experiment: dCK cellular assay: CCRF-CEM proliferation in the presence of dT and dC. In kind it is cell-based, human. The method in brief:
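Two conditions in T-ALL CCRF-CEM cells: compound only, and compound with thymidine blocking de novo synthesis and deoxycytidine rescuing via dCK. Metabolic dye fluorescence (560/590 nm) gives % proliferation vs DMSO; IC50s, mean ± SD of at least three triplicate runs.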

Series [2] relates to CCRF-CEM cell line. As to the kind of experiment: CCRF-CEM proliferation, compound alone (nonspecific toxicity). In kind it is cell-based, human. The protocol: The dCK cellular assay was set up to assess the ability to inhibit dCK activity in a cellular model. The model was developed with a T-cell acute lymphoblastic leukemia cell line (CCRF-CEM), because of its high dependence on the SP, thus on dCK activity. Cellular assays were performed to assess the inhibition of cell proliferation under two conditions: (i) in the presence of the compound alone to determine the nonspecific effect on cells, independent of dCK (nonspecific toxicity) and (ii) in the presence of an inhibitor of the DNP to determine the ability of compounds to inhibit dCK and decrease tumor proliferation (activity on dCK). The inhibitor of the DNP chosen for the experiments was thymidine (dT), a physiological inhibitor of ribonucleotide reductase which arrests cell proliferation in phase S. The dTTP produced via thymidine kinase from dT acts as a RNR inhibitor by an allosteric regulation of the R1 subunit. The addition of the nucleoside deoxycytidine (dC) in the medium allows the rescue of cell proliferation by passing only through the salvage pathway, mediated by dCK. dC needs to be added exogenously to mimic physiological concentrations because it is not present in the cell culture medium, on the contrary to mouse model, in which it is naturally present in the serum. Therefore, cell proliferation under these conditions (+dT +dC) is dCK dependent and it is possible to determine the IC50 of dCK inhibitors on the inhibition of cell proliferation. Results are expressed as % cell proliferation relative to the control with DMSO.
The amount of reduced dye formed by metabolically active cells was quantified by its fluorescence measured at 560 nm (excitation) and 590 nm (emission) in a microplate reader (CLARIOstar, BMG Labtech). A blank well without cells was used as a background control. Each experiment was performed at least three times (with technical triplicates) and data are presented as the mean ± SD.

A short description of series [3]: Acute in vivo toxicity, unique IP injection. The following applies: male, mouse, in vivo; Swiss mice, IP, unique injection; read-out: Maximum tolerated dose. How it is done:
(§1) To evaluate the in vivo toxicity selected compounds were injected by intraperitoneal (IP) route to 7 weeks-old male Swiss mice (n = 2) at 10, 20, 40, 50, or 80 mg/kg by unique injection. […] Compounds were administered in their hydrochloride salt forms. Mice were then observed closely for the next one hour, then every hour for 8 h. Observations were continued for 72 h for signs of pain or toxicity such as change in the behavior and in the activity in the cage (decreased locomotion) or change in the appearance (curved back, eyes half-closed, bristle hair, hips hollowed out). In vivo toxicity of compound OR0642 at 40 and 80 mg/kg was also assessed in the NOD-SCID-IL2Rγc null (NSG) mice model for 2 weeks in the presence and absence of dT to confirm the safety of the compound. […]. Blood samples were collected and spun at 10,000 × g prior to collecting the plasma supernatants. All plasma samples were frozen at −80 °C before sample processing. 13 μl of each plasma sample was mixed with 33 μl of acetonitrile to precipitate proteins and extract the compound. Samples were vortexed for 5 min and then placed in an ultrasonic bath for 1 min. The precipitated proteins were sedimented by centrifugation (15,000 × g, 5 min, 16 °C). Supernatants were transferred to a microplate to be analyzed by LC–MS/MS. All samples were analyzed with a UHPLC coupled to a Shimadzu LC-MS 8030 triple quadrupole. The solutions of a standard range, prepared with plasma from untreated mice, were analyzed in the same series of injections.

Series [4] is described as follows: Plasma pharmacokinetics after IP administration. In kind it is in vivo. The following applies: male, Swiss, mouse, mice. The protocol: as §1
Another series concerns dCK-C3S-S74E. As to the kind of experiment: Thermal shift assay (TSA). The following applies: for ΔTm, dCK thermal stabilization (TSA): 5 μM protein, 50 μM compound; for Thermal Shift Assay Mean (ΔTm (º)): Figure 2b; for THERMAL SHIFT ASSAY +Tm (°): mean ± SD.
dCK-C3S-S74E, sequence (P27707 whole entry S74E, form open): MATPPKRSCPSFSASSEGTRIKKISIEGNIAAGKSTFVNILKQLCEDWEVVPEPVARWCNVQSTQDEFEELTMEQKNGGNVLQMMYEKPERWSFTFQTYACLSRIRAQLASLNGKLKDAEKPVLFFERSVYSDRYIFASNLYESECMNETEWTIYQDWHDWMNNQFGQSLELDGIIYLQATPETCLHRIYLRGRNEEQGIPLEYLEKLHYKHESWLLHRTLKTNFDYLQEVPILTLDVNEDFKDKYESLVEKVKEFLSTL
The subject of a further series is CCRF-CEM cells. As to the kind of experiment: Nucleotides pool measurements. In kind it is cell-based, human. The following applies: 24 h, dT 200 µM, dC 1 µM, OR0642 1 µM. The protocol: CCRF-CEM cells exposed to compounds (dT (200 µM) and/or dC, OR0642, DI-87 and DI-39 (1 µM)) for 0 and 24 h were washed, counted and pelleted. Pellets were extracted with the cold sampling solution (acetonitrile (4) / methanol (4)/125 mM formic acid (2)), vortexed and placed 1 h at −20 °C. Then centrifuged and evaporated. Central metabolites were separated on an ionic chromatography column IonPac AS11 (250 × 2 mm i.d.; Dionex). Solvent used was KOH at a flow rate of 350 µl/min. The column was then equilibrated for 6 min at the initial conditions before the next sample was analyzed. The volume of injection was 15 µl. High-resolution experiments were performed with an ICS5000+, ion chromatography system (Dionex) system coupled to an Orbitrap Qexactive+ mass spectrometer (Thermo Fisher Scientific, Waltham) equipped with a heated electrospray ionization probe. MS analyses were performed in negative FTMS mode at a resolution of 140,000 (at 400 m/z) in full-scan mode, with the following source parameters: 325 °C for the capillary temperature, 380 °C for the source heater temperature, 50 a.u. (arbitrary unit) for the sheath gas flow rate, 5 a.u. for the auxiliary gas flow rate, 50% for the S-Lens RF level, and 2.75 kV for the source voltage. Metabolites were determined by extracting the exact mass with a tolerance of 5 ppm. Each experiment was performed three times.

The mark [5] stands for this setting: Homo sapiens, CCRF-CEM, dT 200 µM + dC 1 µM, 72 h, read-out: IC50 cell proliferation (dCK cellular assay).

Text for dCK-C3S-S74E: BL21 pRIL Escherichia coli cells were transformed with dCK-plasmids (dCK-C4S-S74E (for crystallization assays) and dCK-C3S-S74E (for TSA, enzymatic and ITC assays)). […] Protein dCK-C3S-S74E used for other assays contained only three mutated cysteines. The S74E mutation mimics the phosphorylated state of this serine, which favors the open conformation of the enzyme, making it competent for nucleoside binding[45] to evaluate the binding affinity with compounds.
For binding assays (TSA, ITC and crystallography) cells were re-suspended in 50 mM TRIS, pH 8, 500 mM NaCl, 30 mM imidazole and 10% glycerol buffer and one EDTA free anti-protease tablet was added (Roche). After sonication and centrifugation (30,000 × g), the supernatant was loaded on a 5 ml HisTrap FF column (GE healthcare) pre-equilibrated with resuspension buffer. Protein was then eluted by resuspension buffer containing 500 mM imidazole. Protein eluted fractions were mixed and concentrated. Protein was further purified by size exclusion chromatography (superdex 200 16/600, GE healthcare) in 20 mM HEPES, pH 7.5, and 200 mM NaCl before concentration to 30 mg/ml and storage at −80 °C.
Thermal shift assay (TSA) experiments were performed in 384-well PCR white plates in the assay buffer containing 20 mM HEPES, pH 7.5 and 200 mM NaCl. […] Plates were centrifuged at 200 × g for 2 min at 4 °C. […] Raw fluorescence data were treated, and the melting temperatures (Tm) were calculated using CFX Manager 3.1 software (Bio-Rad). ΔTm represents the difference in Tm between the protein in the presence of compound and the protein alone (both at 2% DMSO). Each experiment was performed at least twice (with technical triplicates) and data are presented as the mean ± SD.

Take `CCCN(c1nc(-c2nc(N)cc(N)n2)cs1)c1cc(-c2ccc(CCN3CCN(C)CC3)nc2)ccc1C` [OR0602]: the activity at 0.004875 µM with CCRF-CEM cell line [1] (Homo sapiens, CCRF-CEM, 4.875 nM, dT 200 µM + dC 1 µM, read-out: Cell proliferation of the CCRF-CEM cell line Mean (% prolif)) came out at 91.9%. For the same compound, in the series on CCRF-CEM cell line [1] (Homo sapiens, CCRF-CEM, 9.75 nM, dT 200 µM + dC 1 µM, read-out: Cell proliferation of the CCRF-CEM cell line Mean (% prolif)), the activity at 0.00975 µM was 88%. For the same compound, in the series on CCRF-CEM cell line [1] (Homo sapiens, CCRF-CEM, 19.5 nM, dT 200 µM + dC 1 µM, read-out: Cell proliferation of the CCRF-CEM cell line Mean (% prolif)), the activity at 0.0195 µM was 81.5%. Also, the activity at 0.039 µM in the series with CCRF-CEM cell line [1] (Homo sapiens, CCRF-CEM, 39 nM, dT 200 µM + dC 1 µM, read-out: Cell proliferation of the CCRF-CEM cell line Mean (% prolif)) stood at 67.1%. In the series with CCRF-CEM cell line [1] (Homo sapiens, CCRF-CEM, 78 nM, dT 200 µM + dC 1 µM, read-out: Cell proliferation of the CCRF-CEM cell line Mean (% prolif)), the activity at 0.078 µM stood at 58.6%. For the same compound, the activity at 0.156 µM with CCRF-CEM cell line [1] (Homo sapiens, CCRF-CEM, 156 nM, dT 200 µM + dC 1 µM, read-out: Cell proliferation of the CCRF-CEM cell line Mean (% prolif)) was 47.4%. Besides, in the series on CCRF-CEM cell line [1] (Homo sapiens, CCRF-CEM, 312 nM, dT 200 µM + dC 1 µM, read-out: Cell proliferation of the CCRF-CEM cell line Mean (% prolif)), the activity at 0.312 µM was determined as 36.8%. Also, in the series with CCRF-CEM cell line [1] (Homo sapiens, CCRF-CEM, 625 nM, dT 200 µM + dC 1 µM, read-out: Cell proliferation of the CCRF-CEM cell line Mean (% prolif)), the activity at 0.625 µM was 27.7%. The activity at 1.25 µM in the series with CCRF-CEM cell line [1] (Homo sapiens, CCRF-CEM, 1250 nM, dT 200 µM + dC 1 µM, read-out: Cell proliferation of the CCRF-CEM cell line Mean (% prolif)) was found to be 20.9%. Besides, the activity at 2.5 µM in the series on CCRF-CEM cell line [1] (Homo sapiens, CCRF-CEM, 2500 nM, dT 200 µM + dC 1 µM, read-out: Cell proliferation of the CCRF-CEM cell line Mean (% prolif)) was 12.7%. In addition, the IC50 with CCRF-CEM cell line [1] (setting [5]) is 130 nM. Besides, the “fold improvement of cellular IC50” value with CCRF-CEM cell line [1] (versus the preceding compound of the optimization) is on record as ~ 2.4 fold. For the same compound, the “nonspecific cellular toxicity” value with CCRF-CEM cell line [2] (CCRF-CEM, absence of dT + dC) is reported as “without an increase in nonspecific cellular toxicity”. Besides, the MTD at 72 h in series [3] is 10 mg/kg. In addition, in series [4] (dose 10 mg/Kg), the Cmax worked out at 960 ± 40 nM and the Tmax is 1 h. Further, the half-life in series [4] (dose 10 mg/Kg, read-out: T ½ (converted)) is 2 ± 0.233 h. In the series on dCK-C3S-S74E, the “ΔTm, dCK thermal stabilization (TSA)” value worked out at 19.5 °C; the “Thermal Shift Assay Mean (ΔTm (º))” value is reported as 19.7 º; the “THERMAL SHIFT ASSAY +Tm (°)” value is recorded as 19.5 ± 0.5 °.

On to `CCCN(c1nc(-c2nc(N)cc(N)n2)cs1)c1cc(-c2ccc(S(=O)(=O)N3CCN(C)CC3)c(OC)c2)ccc1C` [OR0635], for which the activity at 0.00017 µM with CCRF-CEM cell line [1] (Homo sapiens, CCRF-CEM, 0.17 nM, dT 200 µM + dC 1 µM, read-out: Cell proliferation of the CCRF-CEM cell line Mean (% prolif)) is 97%. For the same compound, in the series on CCRF-CEM cell line [1] (Homo sapiens, CCRF-CEM, 0.5 nM, dT 200 µM + dC 1 µM, read-out: Cell proliferation of the CCRF-CEM cell line Mean (% prolif)), the activity at 0.0005 µM worked out at 85.1%. In addition, the activity at 0.0015 µM in the series with CCRF-CEM cell line [1] (Homo sapiens, CCRF-CEM, 1.5 nM, dT 200 µM + dC 1 µM, read-out: Cell proliferation of the CCRF-CEM cell line Mean (% prolif)) was 74.1%. For the same compound, the activity at 0.0046 µM in the series with CCRF-CEM cell line [1] (Homo sapiens, CCRF-CEM, 4.6 nM, dT 200 µM + dC 1 µM, read-out: Cell proliferation of the CCRF-CEM cell line Mean (% prolif)) was determined as 62.3%. The activity at 0.014 µM in the series with CCRF-CEM cell line [1] (Homo sapiens, CCRF-CEM, 14 nM, dT 200 µM + dC 1 µM, read-out: Cell proliferation of the CCRF-CEM cell line Mean (% prolif)) amounted to 48.1%. In addition, in the series with CCRF-CEM cell line [1] (Homo sapiens, CCRF-CEM, 41 nM, dT 200 µM + dC 1 µM, read-out: Cell proliferation of the CCRF-CEM cell line Mean (% prolif)), the activity at 0.041 µM is 35.9%. Moreover, in the series with CCRF-CEM cell line [1] (Homo sapiens, CCRF-CEM, 123 nM, dT 200 µM + dC 1 µM, read-out: Cell proliferation of the CCRF-CEM cell line Mean (% prolif)), the activity at 0.123 µM is 24.4%. For the same compound, the activity at 0.37 µM in the series with CCRF-CEM cell line [1] (Homo sapiens, CCRF-CEM, 370 nM, dT 200 µM + dC 1 µM, read-out: Cell proliferation of the CCRF-CEM cell line Mean (% prolif)) came to 17.8%. For the same compound, in the series on CCRF-CEM cell line [1] (Homo sapiens, CCRF-CEM, 1111 nM, dT 200 µM + dC 1 µM, read-out: Cell proliferation of the CCRF-CEM cell line Mean (% prolif)), the activity at 1.111 µM is 14.8%. Besides, in the series with CCRF-CEM cell line [1] (Homo sapiens, CCRF-CEM, 3333 nM, dT 200 µM + dC 1 µM, read-out: Cell proliferation of the CCRF-CEM cell line Mean (% prolif)), the activity at 3.333 µM was determined as 10.3%. Moreover, the IC50 in the series with CCRF-CEM cell line [1] (Homo sapiens, read-out: dCK CELLULAR ASSAY IC50 (nM), CCRF-CEM, 200 µM dT and 1 µM dC, read-out: dCK […] ASSAY IC50) was 15.4 ± 10 nM. Further, the IC50 with CCRF-CEM cell line [1] (setting [5]) was 15 nM. Further, the IC50 with CCRF-CEM cell line [1] (Homo sapiens, Figure 2a, CCRF-CEM cell line, mean, read-out: IC50 (nM) (Cell Prolif)) is 14 nM. For the same compound, the MTD at 72 h in series [3] is more than 40 mg/kg. In addition, in series [4] (dose 40 mg/Kg), the peak level (Cmax) was 2000 ± 200 nM and the Tmax turned out to be 1.5 h. The half-life in series [4] (dose 40 mg/Kg, read-out: T ½ (converted)) is 6.22 ± 3.38 h. Also, the half-life in series [4] (read-out: half-life) is more than 5 h. Moreover, in the series with dCK-C3S-S74E, the “ΔTm, dCK thermal stabilization (TSA)” value was determined as 20.4 °C; the “Thermal Shift Assay Mean (ΔTm (º))” value is recorded as 20.7 º; the “THERMAL SHIFT ASSAY +Tm (°)” value is reported as 20.40 ± 0.9 °. In addition, in the series with dCK-C3S-S74E (Figure 2a, mean), the “ΔTm (º) (TSA)” value is 20.4 º.

As to `Cc1cn([C@H]2C[C@H](O)[C@@H](CO)O2)c(=O)[nH]c1=O` [dT, thymidine], in the series on CCRF-CEM cell line [2] (dT 111 µM alone, 72 h), the “Cell proliferation of the CCRF-CEM cell line Mean (% prolif)” value is 33.2%. Besides, in the series on CCRF-CEM cells, the “effect on nucleotide pools” value is listed as “increased the dTTP pool”.
